Laboratory results reported in patent publication US10787444B2, “Compounds for the modulation of myc activity” (Syros Pharmaceuticals, Inc., priority 2015, dated 2020).
Counter-ions that a name gives are not always drawn.

Molecular target: T1, c-Myc/Max/Ebox DNA (Homo sapiens, UniProt P01106)
T1 construct: his6 (cleaved yes)
Test: c-Myc/Max/Ebox DNA AlphaScreen Assay
Format: binding
Settings: calculated IC50 class
Protocol: Compounds of the invention were assayed for c-Myc/Max/EBox activity as described in the following protocol. Human his6-c-Myc and his6-Max were used with biotinylated DNA containing a single Ebox sequence (biotin[…]) purchased from MWG Operon. Free c-Myc was generated from his6-c-Myc through thrombin cleavage of the his6 tag. For 384-well plate assays, 10 μL of a 2× solution of free c-Myc (20 nM final), Ni^2+ coated Acceptor Beads (25 μg/ml final), and biotinylated Ebox oligo (10 nM final) were added to 384-well plates with a Biotek EL406 liquid handler. 50 nL of compounds from stock plates were added by pin transfer using a Janus Workstation (PerkinElmer), allowing the compounds to interact with c-Myc prior to c-Myc binding with Max. In the current assay, DMSO was not allowed to exceed 2% v/v of the assay. 10 μl of 2× master mix containing streptavidin-coated donor beads (25 μg/ml final) and his6-Max (5 nM) were added. AlphaScreen measurements were performed on an Envision plate reader (PerkinElmer) utilizing the manufacturer's protocol.
Both master mixes were made in room temperature assay buffer (50 mM HEPES, 150 mM NaCl, 0.2% w/v BSA, 0.02% w/v Tween20, 40 μg/ml glycogen, 500 μM DTT, pH 8.0, wherein both DTT and glycogen were added fresh). Alpha beads were added to respective master solutions. All subsequent steps were performed in low light conditions. Solution 1:2× solution of components with final concentrations of c-Myc Ni-coated Acceptor Beads (25 μg/ml), and biotinylated Ebox oligo (10 nM). Solution 2:2× solution of streptavidin-coated donor beads (25 μg/ml final) and his6-Max 10 μL. […] 50 nL of compounds from stock plates were added by pin transfer using a Janus Workstation. Solution 2 (10 μl) was added with the liquid handler. Plates were sealed with foil to block light exposure and prevent evaporation. Plates were very briefly centrifuged followed by 2 hour incubation. […] Excitation was at 680 nm for donor bead release of singlet oxygen and emission was read with a bandpass filter from 520-620 nm.

T1 sequence (P01106 whole entry): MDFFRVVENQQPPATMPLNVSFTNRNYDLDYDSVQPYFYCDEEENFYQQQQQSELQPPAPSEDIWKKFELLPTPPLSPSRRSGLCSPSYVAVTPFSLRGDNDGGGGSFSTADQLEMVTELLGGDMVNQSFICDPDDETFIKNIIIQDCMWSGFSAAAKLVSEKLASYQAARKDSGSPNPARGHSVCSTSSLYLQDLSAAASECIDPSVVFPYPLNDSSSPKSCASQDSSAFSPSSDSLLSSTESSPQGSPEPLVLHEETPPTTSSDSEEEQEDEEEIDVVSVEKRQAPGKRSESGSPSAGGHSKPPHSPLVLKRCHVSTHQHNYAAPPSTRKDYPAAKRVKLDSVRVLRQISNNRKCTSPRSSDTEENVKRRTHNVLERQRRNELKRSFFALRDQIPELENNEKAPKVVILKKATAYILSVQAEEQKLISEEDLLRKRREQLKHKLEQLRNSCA

Q: With `COCCNCCC(=O)Nc1sc2c(c1-c1nc3ccccc3s1)C[C@H](C)NC2` [Compound 538, (S)—N-(3-(Benzo[d]thiazol-2-yl)-5-methyl-4,5,6,7-tetrahydrothieno[2,3-c]pyridin-2-yl)-3-((2-methoxyethyl)amino)propanamide] as the compound, how does the IC50 (Table 2, compounds of FIG. 1) read?
A: Its IC50 is 300 to 1000 nM.

Q: How did the IC50 (Table 3, compounds of FIG. 2) turn out when `CC(=O)Nc1sc2c(c1-c1nc3ccccc3s1)C(C)CCN(C(C)C)C2` (stereo not drawn) [Compound 213, N-(3-(benzo[d]thiazol-2-yl)-7-isopropyl-4-methyl-5,6,7,8-tetrahydro-4H-thieno[2,3-c]azepin-2-yl)acetamide] was run?
A: The IC50 was over 10000 nM.

Q: With `CCOC(=O)CNCCC(=O)Nc1sc2c(c1-c1nc3ccccc3s1)CCN(C(C)C)C2` [Compound 138, Ethyl (3-((3-(benzo[d]thiazol-2-yl)-6-isopropyl-4,5,6,7-tetrahydrothieno[2,3-c]pyridin-2-yl)amino)-3-oxopropyl)glycinate] as the compound, how does the IC50 (Table 2, compounds of FIG. 1) read?
A: The IC50 was 300 to 1000 nM.

Q: `CC(=O)Nc1sc2c(c1-c1nc3ccccc3s1)CCNC2C(F)(F)F` (stereo not drawn) [Compound 214, N-(3-(benzo[d]thiazol-2-yl)-7-(trifluoromethyl)-4,5,6,7-tetrahydrothieno[2,3-c]pyridin-2-yl)acetamide] was tested. Which IC50 (Table 3, compounds of FIG. 2) did it give?
A: Its IC50 is over 10000 nM.

Q: For `CC(=O)Nc1sc2c(c1-c1nc3ccccc3s1)CCC(NC1CCN(C(=O)OC(C)(C)C)CC1)C2` (stereo not drawn) [Compound 228, tert-butyl 4-((2-acetamido-3-(benzo[d]thiazol-2-yl)-4,5,6,7-tetrahydrobenzo[b]thiophen-6-yl)amino)piperidine-1-carboxylate], which IC50 (Table 3, compounds of FIG. 2) is on record?
A: The IC50 was over 10000 nM.

Q: With `CC(=O)Nc1sc2c(c1-c1nc3ccccc3s1)CC(C(F)(F)F)NC2` (stereo not drawn) [Compound 215, N-(3-(benzo[d]thiazol-2-yl)-5-(trifluoromethyl)-4,5,6,7-tetrahydrothieno[2,3-c]pyridin-2-yl)acetamide] as the compound, how does the IC50 (Table 3, compounds of FIG. 2) read?
A: Its IC50 is over 10000 nM.

Q: For `CC(=O)Nc1sc2c(c1-c1nc3ccccc3s1)C(C)CCNC2` (stereo not drawn) [Compound 212, N-(3-(benzo[d]thiazol-2-yl)-4-methyl-5,6,7,8-tetrahydro-4H-thieno[2,3-c]azepin-2-yl)acetamide], which IC50 (Table 3, compounds of FIG. 2) is on record?
A: The IC50 was over 10000 nM.

Q: With `CC(C)N1CCc2c(sc(NC(=O)CCNCC(=O)O)c2-c2nc3ccccc3s2)C1` [Compound 168, (3-((3-(benzo[d]thiazol-2-yl)-6-isopropyl-4,5,6,7-tetrahydrothieno[2,3-c]pyridin-2-yl)amino)-3-oxopropyl)glycine] as the compound, how does the IC50 (Table 2, compounds of FIG. 1) read?
A: The IC50 was 300 to 1000 nM.

Q: `CCC(C)NCCC(=O)Nc1sc2c(c1-c1nc3cc(Br)ccc3s1)CCNC2` (stereo not drawn) [Compound 139, N-(3-(5-bromobenzo[d]thiazol-2-yl)-4,5,6,7-tetrahydrothieno[2,3-c]pyridin-2-yl)-3-(sec-butylamino)propanamide] was tested. Which IC50 (Table 2, compounds of FIG. 1) did it give?
A: The IC50 was under 300 nM.

Q: Which IC50 (Table 3, compounds of FIG. 2) does the source give for `CC(=O)Nc1sc2c(c1-c1nc3ccccc3s1)CCNC2C` (stereo not drawn) [Compound 210, N-(3-(benzo[d]thiazol-2-yl)-7-methyl-4,5,6,7-tetrahydrothieno[2,3-c]pyridin-2-yl)acetamide] here?
A: The IC50 was 1000 to 10000 nM.

Q: Which IC50 (Table 2, compounds of FIG. 1) does the source give for `COCCNCCC(=O)Nc1sc2c(c1-c1nc3ccc(-c4ccncc4)cc3s1)CC(C)NC2C` (single isomer, unassigned) [Compound 518, N-(5,7-Dimethyl-3-(6-(pyridin-4-yl)benzo[d]thiazol-2-yl)-4,5,6,7-tetrahydrothieno[2,3-c]pyridin-2-yl)-3-((2-methoxyethyl)amino)propanamide] here?
A: Its IC50 is 1000 to 10000 nM.

Q: Which IC50 (Table 2, compounds of FIG. 1) does the source give for `O=C(CCNCc1cn[nH]c1)Nc1sc2c(c1-c1nc3ccccc3s1)CCNC2` [Compound 167, 3-(((1H-pyrazol-4-yl)methyl)amino)-N-(3-(benzo[d]thiazol-2-yl)-4,5,6,7-tetrahydrothieno[2,3-c]pyridin-2-yl)propanamide] here?
A: The IC50 was under 300 nM.

Q: `CCN1[C@H](C)Cc2c(sc(NC(C)=O)c2-c2nc3ccccc3s2)[C@@H]1C` [Compound 211, N-(3-(benzo[d]thiazol-2-yl)-6-ethyl-5,7-dimethyl-4,5,6,7-tetrahydrothieno[2,3-c]pyridin-2-yl)acetamide] was tested. Which IC50 (Table 3, compounds of FIG. 2) did it give?
A: Its IC50 is 1000 to 10000 nM.

Q: With `Cc1cccc2oc(-c3c(NC(=O)CCNC(C)C)sc4c3CCNC4)nc12` [Compound 311, 3-(Isopropylamino)-N-(3-(4-methylbenzo[d]oxazol-2-yl)-4,5,6,7-tetrahydrothieno[2,3-c]pyridin-2-yl)propanamide dihydrochloride] as the compound, how does the IC50 (Table 2, compounds of FIG. 1) read?
A: Its IC50 is 300 to 1000 nM.

Q: Which IC50 (Table 2, compounds of FIG. 1) does the source give for `CC(C)N1CCc2c(sc(NC(=O)CCNCCCOCCOCCOCCCN)c2-c2nc3ccccc3s2)C1` [Compound 120, 1-amino-N-(3-(benzo[d]thiazol-2-yl)-6-isopropyl-4,5,6,7-tetrahydrothieno[2,3-c]pyridin-2-yl)-4,7,10-trioxa-14-azaheptadecan-17-amide] here?
A: The IC50 was under 300 nM.

Q: With `CC(=O)Nc1sc2c(c1-c1nc3ccccc3s1)CCN(C(C)C)C2C` (stereo not drawn) [Compound 216, N-(3-(benzo[d]thiazol-2-yl)-6-isopropyl-7-methyl-4,5,6,7-tetrahydrothieno[2,3-c]pyridin-2-yl)acetamide] as the compound, how does the IC50 (Table 3, compounds of FIG. 2) read?
A: Its IC50 is over 10000 nM.

Q: Which IC50 (Table 2, compounds of FIG. 1) does the source give for `O=C(O)CNCCC(=O)Nc1sc2c(c1-c1nc3ccccc3s1)CCNC2` [Compound 166, (3-((3-(benzo[d]thiazol-2-yl)-4,5,6,7-tetrahydrothieno[2,3-c]pyridin-2-yl)amino)-3-oxopropyl)glycine] here?
A: Its IC50 is 300 to 1000 nM.

Q: `CC(=O)Nc1sc2c(c1-c1nc3ccccc3s1)CC(C)NC2` (stereo not drawn) [Compound 209, N-(3-(benzo[d]thiazol-2-yl)-5-methyl-4,5,6,7-tetrahydrothieno[2,3-c]pyridin-2-yl)acetamide] was tested. Which IC50 (Table 3, compounds of FIG. 2) did it give?
A: The IC50 was 1000 to 10000 nM.

Q: With “N-(3-(Benzo[d]thiazol-2-yl)-6-isopropyl-4,5,6,7-tetrahydrothieno[2,3-c]pyridin-2-yl)-3-(isobutylamino)propanamide [Compound 552]” as the compound, how does the IC50 (Table 2, compounds of FIG. 1) read?
A: Its IC50 is over 10000 nM.

Q: With “N-((5S,7R)-5,7-dimethyl-3-(5-(pyridin-4-yl)benzo[d]thiazol-2-yl)-4,5,6,7-tetrahydrothieno[2,3-c]pyridin-2-yl)-3-((2-methoxyethyl)amino)propanamide [Compound 532]” as the compound, how does the IC50 (Table 2, compounds of FIG. 1) read?
A: The IC50 was 1000 to 10000 nM.

Q: With `CC(=O)Nc1sc2c(c1-c1nc3ccccc3s1)[C@H](C)CN(C(C)C)C2` [Compound 207, (S)—N-(3-(benzo[d]thiazol-2-yl)-6-isopropyl-4-methyl-4,5,6,7-tetrahydrothieno[2,3-c]pyridin-2-yl)acetamide] as the compound, how does the IC50 (Table 3, compounds of FIG. 2) read?
A: Its IC50 is 1000 to 10000 nM.

Q: For `CC(C)N1CCc2c(sc(NC(=O)CCNCCc3ccccc3Cl)c2-c2nc3ccccc3s2)C1` [Compound 109, N-(3-(benzo[d]thiazol-2-yl)-6-isopropyl-4,5,6,7-tetrahydrothieno[2,3-c]pyridin-2-yl)-3-((2-chlorophenethyl)amino)propanamide], which IC50 (Table 2, compounds of FIG. 1) is on record?
A: Its IC50 is over 10000 nM.

Q: For `CC(=O)Nc1sc2c(c1-c1nc3ccccc3s1)CCC(NC(C)=O)C2` (stereo not drawn) [Compound 222, N,N′-(3-(benzo[d]thiazol-2-yl)-4,5,6,7-tetrahydrobenzo[b]thiophene-2,6-diyl)diacetamide], which IC50 (Table 3, compounds of FIG. 2) is on record?
A: The IC50 was over 10000 nM.

Q: `CC(=O)Nc1sc2c(c1-c1nc3ccccc3s1)[C@@H](C)CN(C(C)C)C2` [Compound 208, (R)—N-(3-(benzo[d]thiazol-2-yl)-6-isopropyl-4-methyl-4,5,6,7-tetrahydrothieno[2,3-c]pyridin-2-yl)acetamide] was tested. Which IC50 (Table 3, compounds of FIG. 2) did it give?
A: The IC50 was 1000 to 10000 nM.
